From ChEMBL document CHEMBL1909046, “DrugMatrix in vitro pharmacology data”

tested on: not listed separately; experiment: DRUGMATRIX: GABAA, Chloride Channel, TBOB radioligand binding (ligand: [3H] TBOB); assay type: cell membranes, Rattus norvegicus, Wistar, Cerebral cortex, Membrane; settings: Not Active = under 50% inhibition at 10 µM

| Compound | IC50 | Ki |
| --- | --- | --- |
| CC1=NN(c2ccccc2)C(=O)C1 [EDARAVONE] | Not Active | Not Active |
| CC(C)C[C@H]1C(=O)N2CCC[C@H]2[C@]2(O)O[C@](NC(=O)[C@@H]3C=C4c5cccc6[nH]cc(c56)C[C@H]4N(C)C3)(C(C)C)C(=O)N12 [ERGOCRYPTINE] | Not Active | Not Active |
| C[C@]12CC[C@@H]3c4ccc(O)cc4CC[C@H]3[C@@H]1C[C@@H](O)[C@@H]2O [ESTRIOL] | Not Active | Not Active |
| C#C[C@]1(O)CC[C@H]2[C@@H]3CCC4=CC(=O)CC[C@]4(C)[C@H]3CC[C@@]21C [ETHISTERONE] | Not Active | Not Active |
| CC(O)(P(=O)(O)O)P(=O)(O)O [ETIDRONIC ACID] | Not Active | Not Active |
| CC(C)(C(=O)O)c1ccc(C(O)CCCN2CCC(C(O)(c3ccccc3)c3ccccc3)CC2)cc1 (stereo not drawn) [FEXOFENADINE] | Not Active | Not Active |
| CN1CCN(c2c(F)cc3c(=O)c(C(=O)O)cn(CCF)c3c2F)CC1 [FLEROXACIN] | Not Active | Not Active |

target: Melanocortin receptor 3 (Homo sapiens, UniProt P41968); experiment: not given; assay type: cell membranes, Membrane; settings: hek293; note: in other assays of this panel Not Active means under 50% inhibition at 10 µM
Sequence (P41968 whole entry): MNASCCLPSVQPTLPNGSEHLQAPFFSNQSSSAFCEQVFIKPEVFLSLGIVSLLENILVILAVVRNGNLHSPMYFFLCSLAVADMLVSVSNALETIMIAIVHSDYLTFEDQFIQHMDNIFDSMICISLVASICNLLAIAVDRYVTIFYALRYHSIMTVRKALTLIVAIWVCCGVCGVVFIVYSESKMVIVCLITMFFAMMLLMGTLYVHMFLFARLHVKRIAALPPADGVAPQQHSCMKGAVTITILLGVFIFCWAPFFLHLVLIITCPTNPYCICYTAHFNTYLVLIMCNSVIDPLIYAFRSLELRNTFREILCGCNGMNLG

| Compound | IC50 |
| --- | --- |
| CC1=NN(c2ccccc2)C(=O)C1 [EDARAVONE] | Not Active |
| CC(C)C[C@H]1C(=O)N2CCC[C@H]2[C@]2(O)O[C@](NC(=O)[C@@H]3C=C4c5cccc6[nH]cc(c56)C[C@H]4N(C)C3)(C(C)C)C(=O)N12 [ERGOCRYPTINE] | Not Active |
| C[C@]12CC[C@@H]3c4ccc(O)cc4CC[C@H]3[C@@H]1C[C@@H](O)[C@@H]2O [ESTRIOL] | Not Active |
| C#C[C@]1(O)CC[C@H]2[C@@H]3CCC4=CC(=O)CC[C@]4(C)[C@H]3CC[C@@]21C [ETHISTERONE] | Not Active |
| CC(O)(P(=O)(O)O)P(=O)(O)O [ETIDRONIC ACID] | Not Active |
| CC(C)(C(=O)O)c1ccc(C(O)CCCN2CCC(C(O)(c3ccccc3)c3ccccc3)CC2)cc1 (stereo not drawn) [FEXOFENADINE] | Not Active |
| CN1CCN(c2c(F)cc3c(=O)c(C(=O)O)cn(CCF)c3c2F)CC1 [FLEROXACIN] | Not Active |

tested on: not listed separately; experiment: DRUGMATRIX: GABAA, Muscimol, Central radioligand binding (ligand: [3H] Muscimol); assay type: cell membranes, Rattus norvegicus, Wistar, Brain, Membrane; settings: Not Active = under 50% inhibition at 10 µM

| Compound | IC50 | Ki |
| --- | --- | --- |
| CC1=NN(c2ccccc2)C(=O)C1 [EDARAVONE] | Not Active | Not Active |
| CC(C)C[C@H]1C(=O)N2CCC[C@H]2[C@]2(O)O[C@](NC(=O)[C@@H]3C=C4c5cccc6[nH]cc(c56)C[C@H]4N(C)C3)(C(C)C)C(=O)N12 [ERGOCRYPTINE] | Not Active | Not Active |
| C[C@]12CC[C@@H]3c4ccc(O)cc4CC[C@H]3[C@@H]1C[C@@H](O)[C@@H]2O [ESTRIOL] | Not Active | Not Active |
| C#C[C@]1(O)CC[C@H]2[C@@H]3CCC4=CC(=O)CC[C@]4(C)[C@H]3CC[C@@]21C [ETHISTERONE] | Not Active | Not Active |
| CC(O)(P(=O)(O)O)P(=O)(O)O [ETIDRONIC ACID] | Not Active | Not Active |
| CC(C)(C(=O)O)c1ccc(C(O)CCCN2CCC(C(O)(c3ccccc3)c3ccccc3)CC2)cc1 (stereo not drawn) [FEXOFENADINE] | Not Active | Not Active |
| CN1CCN(c2c(F)cc3c(=O)c(C(=O)O)cn(CCF)c3c2F)CC1 [FLEROXACIN] | Not Active | Not Active |

target: Adenosine receptor A2a (Homo sapiens, UniProt P29274); experiment: DRUGMATRIX: Adenosine A2A radioligand binding (ligand: […]); assay type: cell membranes, HEK293, Membrane; settings: hek293; Not Active = under 50% inhibition at 10 µM
Sequence (P29274 whole entry): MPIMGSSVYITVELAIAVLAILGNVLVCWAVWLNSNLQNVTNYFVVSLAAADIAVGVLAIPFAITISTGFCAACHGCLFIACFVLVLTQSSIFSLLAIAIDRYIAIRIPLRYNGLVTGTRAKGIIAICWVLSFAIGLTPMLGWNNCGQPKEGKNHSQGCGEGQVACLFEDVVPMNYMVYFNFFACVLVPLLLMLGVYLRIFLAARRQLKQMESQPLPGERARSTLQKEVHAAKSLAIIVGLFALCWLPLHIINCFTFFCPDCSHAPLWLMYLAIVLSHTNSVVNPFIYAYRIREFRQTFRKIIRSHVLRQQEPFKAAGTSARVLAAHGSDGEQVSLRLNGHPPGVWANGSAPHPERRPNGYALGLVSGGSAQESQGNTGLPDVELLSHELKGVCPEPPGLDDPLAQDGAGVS

| Compound | IC50 |
| --- | --- |
| CC1=NN(c2ccccc2)C(=O)C1 [EDARAVONE] | Not Active |
| CC(C)C[C@H]1C(=O)N2CCC[C@H]2[C@]2(O)O[C@](NC(=O)[C@@H]3C=C4c5cccc6[nH]cc(c56)C[C@H]4N(C)C3)(C(C)C)C(=O)N12 [ERGOCRYPTINE] | Not Active |
| C[C@]12CC[C@@H]3c4ccc(O)cc4CC[C@H]3[C@@H]1C[C@@H](O)[C@@H]2O [ESTRIOL] | Not Active |
| C#C[C@]1(O)CC[C@H]2[C@@H]3CCC4=CC(=O)CC[C@]4(C)[C@H]3CC[C@@]21C [ETHISTERONE] | Not Active |
| CC(O)(P(=O)(O)O)P(=O)(O)O [ETIDRONIC ACID] | Not Active |
| CC(C)(C(=O)O)c1ccc(C(O)CCCN2CCC(C(O)(c3ccccc3)c3ccccc3)CC2)cc1 (stereo not drawn) [FEXOFENADINE] | Not Active |
| CN1CCN(c2c(F)cc3c(=O)c(C(=O)O)cn(CCF)c3c2F)CC1 [FLEROXACIN] | Not Active |

target: T1, Polyunsaturated fatty acid lipoxygenase ALOX15 (Oryctolagus cuniculus, UniProt P12530); experiment: biochemical; assay type: tissue-based, Reticulocytes; settings: read-out: IC50;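 note: inhibition of 15-lipoxygenase enzyme activity measured with linoleic acid as the substrate; in other assays of this panel Not Active means under 50% inhibition at 10 µM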
T1 sequence (P12530 whole entry): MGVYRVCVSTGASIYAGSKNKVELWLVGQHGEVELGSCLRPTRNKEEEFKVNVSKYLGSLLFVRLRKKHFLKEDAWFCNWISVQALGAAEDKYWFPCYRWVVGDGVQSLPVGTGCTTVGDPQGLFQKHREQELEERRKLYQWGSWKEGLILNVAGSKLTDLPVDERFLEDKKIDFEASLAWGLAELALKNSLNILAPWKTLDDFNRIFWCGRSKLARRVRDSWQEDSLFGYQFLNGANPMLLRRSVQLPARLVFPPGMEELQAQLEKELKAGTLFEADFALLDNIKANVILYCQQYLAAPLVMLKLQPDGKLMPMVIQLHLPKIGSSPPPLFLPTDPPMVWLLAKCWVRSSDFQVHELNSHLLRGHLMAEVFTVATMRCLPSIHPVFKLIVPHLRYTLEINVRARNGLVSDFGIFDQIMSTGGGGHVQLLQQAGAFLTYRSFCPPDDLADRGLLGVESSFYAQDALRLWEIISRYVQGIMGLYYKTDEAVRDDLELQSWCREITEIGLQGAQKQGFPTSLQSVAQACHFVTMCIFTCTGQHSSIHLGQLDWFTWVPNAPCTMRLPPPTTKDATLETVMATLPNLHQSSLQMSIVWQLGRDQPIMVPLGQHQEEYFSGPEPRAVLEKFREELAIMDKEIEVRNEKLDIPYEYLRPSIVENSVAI

| Compound | IC50 |
| --- | --- |
| C[C@]12CC[C@@H]3c4ccc(O)cc4CC[C@H]3[C@@H]1C[C@@H](O)[C@@H]2O [ESTRIOL] | 8.64 µM |

same assay, conditions: reticulocytes

| Compound | IC50 |
| --- | --- |
| CC1=NN(c2ccccc2)C(=O)C1 [EDARAVONE] | Not Active |
| CC(C)C[C@H]1C(=O)N2CCC[C@H]2[C@]2(O)O[C@](NC(=O)[C@@H]3C=C4c5cccc6[nH]cc(c56)C[C@H]4N(C)C3)(C(C)C)C(=O)N12 [ERGOCRYPTINE] | Not Active |
| C#C[C@]1(O)CC[C@H]2[C@@H]3CCC4=CC(=O)CC[C@]4(C)[C@H]3CC[C@@]21C [ETHISTERONE] | Not Active |
| CC(O)(P(=O)(O)O)P(=O)(O)O [ETIDRONIC ACID] | Not Active |
| CC(C)(C(=O)O)c1ccc(C(O)CCCN2CCC(C(O)(c3ccccc3)c3ccccc3)CC2)cc1 (stereo not drawn) [FEXOFENADINE] | Not Active |
| CN1CCN(c2c(F)cc3c(=O)c(C(=O)O)cn(CCF)c3c2F)CC1 [FLEROXACIN] | Not Active |

tested on: not listed separately; experiment: DRUGMATRIX: Phosphodiesterase PDE4 enzyme inhibition (substrate: [3H]cAMP + cAMP); settings: u-937; Not Active = under 50% inhibition at 10 µM

| Compound | IC50 | Ki |
| --- | --- | --- |
| CC1=NN(c2ccccc2)C(=O)C1 [EDARAVONE] | Not Active | Not Active |
| CC(C)C[C@H]1C(=O)N2CCC[C@H]2[C@]2(O)O[C@](NC(=O)[C@@H]3C=C4c5cccc6[nH]cc(c56)C[C@H]4N(C)C3)(C(C)C)C(=O)N12 [ERGOCRYPTINE] | Not Active | Not Active |
| C[C@]12CC[C@@H]3c4ccc(O)cc4CC[C@H]3[C@@H]1C[C@@H](O)[C@@H]2O [ESTRIOL] | Not Active | Not Active |
| C#C[C@]1(O)CC[C@H]2[C@@H]3CCC4=CC(=O)CC[C@]4(C)[C@H]3CC[C@@]21C [ETHISTERONE] | Not Active | Not Active |
| CC(O)(P(=O)(O)O)P(=O)(O)O [ETIDRONIC ACID] | Not Active | Not Active |
| CC(C)(C(=O)O)c1ccc(C(O)CCCN2CCC(C(O)(c3ccccc3)c3ccccc3)CC2)cc1 (stereo not drawn) [FEXOFENADINE] | Not Active | Not Active |
| CN1CCN(c2c(F)cc3c(=O)c(C(=O)O)cn(CCF)c3c2F)CC1 [FLEROXACIN] | Not Active | Not Active |
